For 21 compounds, inhibition and Ki results are on record in ChEMBL document CHEMBL1126274, “Mapping the binding site of tissue kallikrein: preparation and testing of all possible substrate analog inhibitors homologous with the sequence of kininogen between Ser386 and Gln392” (J Med Chem, 1992).

In test [1] the target is T1, Kallikrein 1 (Sus scrofa) (UniProt O97506).
T1 sequence (whole entry): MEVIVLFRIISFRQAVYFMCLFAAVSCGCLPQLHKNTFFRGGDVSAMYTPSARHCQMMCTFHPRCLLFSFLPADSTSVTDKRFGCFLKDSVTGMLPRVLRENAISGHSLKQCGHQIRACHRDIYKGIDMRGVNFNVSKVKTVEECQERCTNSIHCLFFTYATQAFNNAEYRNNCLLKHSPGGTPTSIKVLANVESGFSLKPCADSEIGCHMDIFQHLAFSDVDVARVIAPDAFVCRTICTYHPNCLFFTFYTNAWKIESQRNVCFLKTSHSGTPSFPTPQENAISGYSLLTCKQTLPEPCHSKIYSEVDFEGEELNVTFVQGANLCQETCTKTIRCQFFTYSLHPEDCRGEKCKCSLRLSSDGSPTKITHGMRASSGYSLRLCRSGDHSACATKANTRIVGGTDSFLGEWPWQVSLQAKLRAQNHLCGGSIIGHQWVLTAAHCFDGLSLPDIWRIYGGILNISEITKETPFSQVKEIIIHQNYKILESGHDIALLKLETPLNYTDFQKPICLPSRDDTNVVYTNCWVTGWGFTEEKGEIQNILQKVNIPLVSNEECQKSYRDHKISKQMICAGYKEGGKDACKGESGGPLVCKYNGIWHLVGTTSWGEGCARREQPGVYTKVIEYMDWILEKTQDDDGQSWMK
Kind of test: Compound was evaluated for inhibitory activity against beta-kallikrein; No inhibition at 0.5 mM concentration.

The target of another test is T2, Glandular kallikrein (Sus scrofa, UniProt P00752).
T2 sequence (P00752 whole entry): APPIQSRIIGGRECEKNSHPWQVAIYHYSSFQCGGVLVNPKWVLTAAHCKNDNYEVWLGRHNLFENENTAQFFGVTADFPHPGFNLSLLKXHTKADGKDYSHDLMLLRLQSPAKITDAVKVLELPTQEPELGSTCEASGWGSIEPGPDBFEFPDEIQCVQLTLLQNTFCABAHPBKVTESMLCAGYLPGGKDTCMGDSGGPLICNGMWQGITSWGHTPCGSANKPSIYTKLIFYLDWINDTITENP
The test is described as follows: Inhibitory activity against beta-kallikrein.

Test [2] concerns the target T1, Kallikrein 1 (Sus scrofa). Kind of test: Compound was evaluated for inhibitory activity against beta-kallikrein; No inhibition at 1 mM concentration.
The target in test [3] is T1, Kallikrein 1 (Sus scrofa). The test is described as follows: Compound was evaluated for inhibitory activity against beta-kallikrein; No inhibition at 20 mM concentration.
For test [4], the target named is T1, Kallikrein 1 (Sus scrofa). Kind of test: Compound was evaluated for inhibitory activity against beta-kallikrein; No inhibition at 28 mM concentration.

Residues, ends and D or L forms follow the SMILES beside them.

With `CC(=O)N[C@@H](CCCN=C(N)N)C(=O)N[C@@H](CO)C(N)=O` (Ac-Arg-Ser-NH2), the inhibition entry in test [1] was “No inhibition”.
`CC(=O)N[C@@H](CCCN=C(N)N)C(=O)N[C@@H](CO)C(=O)N[C@H](C(N)=O)C(C)C` (Ac-Arg-Ser-Val-NH2): the inhibition result in test [1] was “No inhibition”.
Take `CC(=O)N[C@@H](Cc1ccccc1)C(=O)N[C@@H](CCCNC(=N)N)C(=O)N[C@@H](CO)C(=O)N[C@H](C(N)=O)C(C)C` (Ac-FRSV-NH2): at Glandular kallikrein, affinity was put at a Ki of 479 µM.
Regarding `CC(=O)N1CCC[C@H]1C(=O)N[C@@H](Cc1ccccc1)C(=O)N[C@@H](CCCN=C(N)N)C(=O)N[C@@H](CO)C(N)=O` (Ac-PFRS-NH2), the Ki (usually a measure of affinity in units of concentration, obtained from inhibition or displacement) on Glandular kallikrein amounted to 578 µM.
Regarding `CC(=O)N[C@@H](Cc1ccccc1)C(=O)N[C@@H](CCCN=C(N)N)C(N)=O` (Ac-Phe-Arg-NH2), in test [2], the inhibition entry is “No inhibition”.
As for `CC(=O)N[C@@H](Cc1ccccc1)C(=O)N[C@@H](CCCNC(=N)N)C(=O)N[C@@H](CO)C(N)=O` (Ac-Phe-Arg-Ser-NH2), the Ki on Glandular kallikrein is 718 µM.
With `CC(=O)N1CCC[C@H]1C(=O)N[C@@H](Cc1ccccc1)C(=O)N[C@@H](CCCN=C(N)N)C(N)=O` (Ac-Pro-Phe-Arg-NH2), the inhibition entry in test [1] is “No inhibition”.
`CC(=O)N1CCC[C@H]1C(=O)N[C@@H](Cc1ccccc1)C(N)=O` (Ac-Pro-Phe-NH2): the inhibition result in test [2] was “No inhibition”.
In turn, `CC(=O)N[C@@H](CCCNC(=N)N)C(=O)N[C@@H](CO)C(=O)N[C@H](C(=O)N[C@@H](CCC(N)=O)C(N)=O)C(C)C` (Ac-RSVQ-NH2) showed a Ki at Glandular kallikrein of 950 µM.
Regarding `CC(=O)N[C@@H](CO)C(=O)N1CCC[C@H]1C(=O)N[C@@H](Cc1ccccc1)C(=O)N[C@@H](CCCN=C(N)N)C(N)=O` (Ac-SPFR-NH2), at Glandular kallikrein, the affinity corresponds to a Ki of 2290 µM.
With `CC(=O)N[C@@H](CO)C(=O)N1CCC[C@H]1C(N)=O` (Ac-Ser-Pro-NH2), the inhibition result in test [1] is “No inhibition”.
As to `CC(=O)N[C@@H](CO)C(=O)N1CCC[C@H]1C(=O)N[C@@H](Cc1ccccc1)C(N)=O` (Ac-Ser-Pro-Phe-NH2), the inhibition entry in test [1] was “No inhibition”.
In the case of `CC(=O)N[C@@H](CO)C(=O)N[C@H](C(=O)N[C@@H](CCC(N)=O)C(N)=O)C(C)C` (Ac-Ser-Val-Gln-NH2), in test [3], the inhibition result is “No inhibition”.
As for `CC(=O)N[C@@H](CO)C(=O)N[C@H](C(N)=O)C(C)C` (Ac-Ser-Val-NH2), in test [1], the inhibition entry is “No inhibition”.
As to `CC(=O)N[C@H](C(=O)N[C@@H](CCC(N)=O)C(N)=O)C(C)C` (Ac-Val-Gln-NH2), the inhibition result in test [4] was “No inhibition”.
Turning to Ac-FRSVQ-NH2, affinity at Glandular kallikrein was put at a Ki of 230 µM.
Still for that read-out and setting: the value for Ac-PFRSV-NH2 was 266 µM; that for Ac-PFRSVQ-NH2 was 167 µM; that for Ac-SPFRS-NH2 was 223 µM.
On to Ac-SPFRSV-NH2, for which the inhibition constant (Ki) at Glandular kallikrein came to 135 µM.
Same read-out and setting: the value for Ac-SPFRSVQ-NH2 was 101 µM.
